How the values were obtained:
[1] = Oral bioavailability in Sprague-Dawley rat at 10 mg/kg after 15 to 240 mins by LC-MS/MS method; type: ADME, organism-based; settings: in vivo
Rattus norvegicus [2] = assay: Reduction in urinary glucose excretion in overnight fasted Sprague-Dawley rat assessed as urinary glucose concentration per 200 g of body weight per 24 hours at 1 mg/kg, po; type: functional
Rattus norvegicus [3] = assay: Reduction in urinary glucose excretion in overnight fasted Sprague-Dawley rat assessed as urinary glucose concentration per 200 g of body weight per 24 hours at 3 mg/kg, po; type: functional
Rattus norvegicus [4] = assay: Reduction in urinary glucose excretion in overnight fasted Sprague-Dawley rat assessed as urinary glucose concentration per 200 g of body weight per 24 hours at 10 /kg, po; type: functional
[5] = Oral bioavailability in Sprague-Dawley rat at 10 mg/kg after 15 to 240 mins by HPLC method; type: ADME, organism-based; settings: in vivo
[6] = Toxicity in ICR mouse assessed as induction of mouse mortality by measuring death incidence at 2000 mg/kg, po measured up to 24 hrs post dose; type: organism-based; settings: in vivo

Row | bioavailability [1] [%] | bioavailability [5] [%] | SMILES | Activity (Rattus norvegicus [2]) [mg] | Activity (Rattus norvegicus [3]) [mg] | Activity (Rattus norvegicus [4]) [mg] | Activity [6]
1 | 27 |  | COC(=O)OC[C@H]1O[C@@H](Oc2nn(C(C)C)c(C)c2Cc2ccc(OC(C)C)cc2)[C@H](O)[C@@H](O)[C@@H]1O | 1.7 | 36.8 | 167.3 | 
2 | 32 |  | Cc1c(Cc2ccc(OC(C)C)cc2)c(O[C@@H]2O[C@H](COC(=O)OCC(C)C)[C@@H](O)[C@H](O)[C@H]2O)nn1C(C)C |  |  |  | 
3 |  | 0 | Cc1[nH]nc(O[C@@H]2O[C@H](CO)[C@@H](O)[C@H](O)[C@H]2O)c1Cc1ccc(OC(C)C)cc1 |  |  |  | 
4 |  | 15 | Cc1[nH]nc(O[C@@H]2O[C@H](CO)[C@@H](O)[C@H](O)[C@H]2O)c1Cc1ccc(C(C)C)cc1 |  |  |  | 
5 | 27 |  | CCOC(=O)OC[C@H]1O[C@@H](Oc2nn(C(C)C)c(C)c2Cc2ccc(OC(C)C)cc2)[C@H](O)[C@@H](O)[C@@H]1O [REMOGLIFLOZIN ETABONATE] | 1.6 | 28.3 | 127.5 | 

Row | SMILES | bioavailability [1] [%] | bioavailability [5] [%] | Activity (Rattus norvegicus [2]) [mg] | Activity (Rattus norvegicus [3]) [mg] | Activity (Rattus norvegicus [4]) [mg] | Activity [6]
6 | CSc1ccc(Cc2c(O[C@@H]3O[C@H](CO)[C@@H](O)[C@H](O)[C@H]3O)n[nH]c2C(F)(F)F)cc1 |  | 11 |  |  |  | Non-Toxic

Source: ChEMBL document CHEMBL3880397, “Glucopyranosyloxypyrazole derivatives and use thereof in medicines” (2004)
